Assay [1] has as its system E-cadherin expression in H520 cells. Description: E-cadherin expression, in-cell Western (ICW), H520 cells. Particulars: Homo sapiens, NCI-H520; for fold induction at 10 µM: change in expression level of E-cadherin in response to 10 μM compound, 24 hours, H520 cells; for EC50: inducement of E-cadherin expression in H520 cells. In kind it is cell-based. The protocol:
SW620 and H520 cells (5×10^4/100 μL) were seeded in a 96-well plate prior to treatment. Cells were treated with 10 μM concentration of synthesized compound in quadruplicate for 24 hours in RPMI 1640 supplemented medium and 100 μg/mL penicillin-streptomycin. The cells were then fixed with 100% methanol for 20 minutes at 4° C. The wells were then washed 2 times with PBS, permeabilized in 2% bovine serum albumin (BSA) and 0.2% TritonX-100 in PBS for 30 minutes at room temperature with gentle agitation, and blocked in LI-COR blocking buffer for 30 minutes at room temperature with gentle agitation. The cells were then incubated with the following primary antibodies: anti-E-Cadherin (1:500) and anti-α-Tubulin (1:1000) diluted in blocking buffer (1:1 dilution in PBS) for 2 hours at room temperature with gentle agitation. The cells were washed 4 times in PBS-T for 5 minutes each, and then incubated with the following secondary antibodies conjugated to a fluorescent entity: IRDye 800-conjugated goat anti-rabbit IgG (1:1000) and IRDye-700-conjugated goat anti-mouse IgG (1:2000) in blocking buffer (1:1 dilution in PBS) with gentle agitation for 1 h at room temperature. The cells were washed 4 times in PBS-T for 5 minutes each followed by a single wash with PBS. All liquid was removed from the wells and the plates were visualized and analyzed on the Odyssey IR imaging system (LI-COR Biosciences).
The assay was further optimized in the following manner. The cells were washed 2 times with PBS, fixed in 100% methanol at room temperature for 15 minutes, and again washed 2 times with PBS. The cells were then incubated with the following primary antibodies: anti-E-Cadherin (1:200) and anti-α-Tubulin (1:2000) diluted in ice cold 2% bovine serum albumin (BSA) and 0.2% TritonX-100 in PBS for 1 hour at room temperature with gentle agitation. The cells were washed 2 times in PBS and then incubated with the following secondary antibodies conjugated to a fluorescent entity: Licor 800-conjugated goat anti-rabbit IgG (1:2000) and IRDye-700-conjugated goat anti-mouse IgG (1:2000) in ice cold 2% BSA and 0.2% TritonX-100 in PBS with gentle agitation for 45 minutes at room temperature. The wells were washed 2 times in PBS, dried, and analyzed as previously mentioned.
Changes in expression level of E-cadherin in response to 10 μM compound in H520 cells was determined in a cell-based functional assay as described above, and the data are shown in Table IV. The compound number corresponds to the compound numbers used in Table II.
EC50 of inducement of E-cadherin expression in H520 cells was determined in a cell-based functional assay as described above, and the data are shown in Table VI. The compound number corresponds to the compound numbers used in Table II.

Assay [2] deals with E-cadherin expression in SW620 cells. Description: E-cadherin expression, in-cell Western (ICW), SW620 cells. In kind it is cell-based. As to conditions: Homo sapiens; for fold induction at 10 µM: SW-620, 24 h, change in expression level of E-cadherin in response to 10 μM compound, 24 hours, SW620 cells; for EC50: SW-620, inducement of E-cadherin expression in SW620 cells. In short, it runs like this: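 SW620 cells were treated with compound for 24 h in RPMI 1640 (single-point at 10 μM; EC50 also determined), in quadruplicate. After methanol fixation, in-cell Western with anti-E-cadherin and anti-α-tubulin primaries and IRDye 800/700 secondaries. Read on an Odyssey IR imager.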

A further assay has as its system HMEC-1 cells. Description: E-cadherin, VE-cadherin, Vimentin and histone marks in HMEC-1 cells (qPCR, Western blot). In kind it is cell-based, human. As to conditions: after 48 hours of treatment. In general terms: Quantitative PCR measures a nucleic acid by following its amplification.
Assay [3] relates to proximal region of the E-cadherin promoter (Cdh1) in SW620inv cells. Description: ChIP assay at proximal E-cadherin promoter, SW620inv cells. In kind it is cell-based. As to conditions: ChIP (FIG. 8).
In assay [4] the test system is E-cadherin, H3K9Ac, H3K4me3, H3K27me3, H3K4me2 in SW620inv cells. Description: Western blot time course of E-cadherin and histone H3 marks, SW620inv cells. In kind it is cell-based.
The next assay has as its system cyclin D1 protein. Description: Cyclin D1 protein by ICW (control for cycloheximide). In kind it is cell-based. Particulars: within the 7 hour experimental interval. The protocol: Compound 13 increased the mRNA levels of E-cadherin specific mRNA by 27-fold in SW620inv cells (FIG. 3B) and by 20-fold in H520 cells (FIG. 3C) by 6 hours post-treatment. […] Whether de novo protein synthesis was required for the effect of Compound 13 on E-cadherin mRNA expression was determined. For these experiments, cells were treated with cycloheximide prior to application of Compound 13 and the expression of E-cadherin mRNA was evaluated 6 hours post-treatment for best sensitivity. The levels of cyclin D1 protein, known to have a very short half-life of ˜20 minutes (Diehl, J. A., et al. (1998) Genes & Development 12, 3499-3511), were analyzed as a positive control for the effectiveness of cycloheximide (CHX) treatment.
Referring to FIG. 4B and FIG. 4C, quantification of cyclin D1 protein by ICW, as described above, and under similar conditions as in (4A) at 6 h post-treatment with or without cyclohexamide.

This note sets out measurements from patent publication US9783510B2, “Small molecule mediated transcriptional induction of E-cadherin” (Vanderbilt University, priority 2014, dated 2017).

On to `O=C(Cc1ccccc1O)NCCNC(=O)c1cc(-c2ccccc2)on1` [Compound 1, N-(2-(2-(2-hydroxyphenyl)acetamido)ethyl)-5-phenylisoxazole-3-carboxamide], for which the fold induction at 10 µM in assay [1] was found to be 3.51; in assay [2], 3.4. The EC50 is 5.6 µM in assay [1] and 3.7 µM in assay [2].

For the compound `O=C(NCCNC(=O)c1cc(Br)ccc1O)c1cc(-c2ccccc2)on1` [Compound 2, N-(2-(5-bromo-2-hydroxybenzamido)ethyl)-5-phenylisoxazole-3-carboxamide], the fold induction at 10 µM in assay [1] came to 1.14; in assay [2] it was 1.18.

In assay [1], `O=C(NCCNC(=O)c1cc(-c2ccccc2)on1)c1ccncc1` [Compound 4, N-(2-(isonicotinamido)ethyl)-5-phenylisoxazole-3-carboxamide] showed a fold induction at 10 µM of 2.87 and an EC50 of 5.1 µM. Besides, in assay [2], the fold induction at 10 µM turned out to be 2.79 and the EC50 turned out to be 8.8 µM.

Consider `O=C(NCCNC(=O)c1nccs1)c1cc(-c2ccccc2)on1` [Compound 5, 5-phenyl-N-(2-(thiazole-2-carboxamido)ethyl)isoxazole-3-carboxamide], for which, in assay [1], the fold induction at 10 µM is 4.22. In assay [2], this compound came in with a fold induction at 10 µM of 8.98 and an EC50 of 4.8 µM.

Regarding `Nc1ncn([C@@H]2O[C@H](CO)[C@@H](O)[C@H]2O)c(=O)n1` [Compound 5-Aza, 5-azacytidine], the “restoring E-cadherin in HMEC-1 cells” value with HMEC-1 cells is recorded as “neither TSA nor 5-Aza, nor the combination of these two agents, was effective”.

In assay [1], `O=C(NCCCNC(=O)c1cc(F)ccc1O)c1cc(-c2ccccc2)on1` [Compound 20, N-(3-(5-fluoro-2-hydroxybenzamido)propyl)-5-phenylisoxazole-3-carboxamide] had a fold induction at 10 µM of 5.27 and an EC50 of 1.4 µM. In assay [2], this compound had a fold induction at 10 µM of 2.43 and an EC50 of 5 µM.

As for `O=C(Cc1ccccc1O)NCCCNC(=O)c1cc(-c2ccccc2)on1` [Compound 21, N-(3-(2-(2-hydroxyphenyl)acetamido)propyl)-5-phenylisoxazole-3-carboxamide], in assay [1], the fold induction at 10 µM stood at 5.92 and a half-maximal response (EC50) required 1.5 µM. Besides, in assay [2], the fold induction at 10 µM worked out at 4.92 and the EC50 came to 4.97 µM.

With `O=C(NCCCNC(=O)c1n[nH]c2ccccc12)c1cc(-c2ccccc2)on1` [Compound 22, N-(3-(1H-indazole-3-carboxamido)propyl)-5-phenylisoxazole-3-carboxamide], the fold induction at 10 µM amounted to 1.88 in assay [1] and 1.62 in assay [2].

Consider `O=C(NCCNC(=O)c1cc(F)ccc1O)c1cc(-c2ccccc2)[nH]n1` [Compound 122, N-(2-(5-fluoro-2-hydroxybenzamido)ethyl)-5-phenyl-1H-pyrazole-3-carboxamide], for which the fold induction at 10 µM in assay [1] is 1.04; in assay [2], 1.45.

Turning to `O=C(Cc1ccccc1O)NCCNC(=O)c1cc(-c2ccccc2)[nH]n1` [Compound 123, N-(2-(2-(2-hydroxyphenyl)acetamido)ethyl)-5-phenyl-1H-pyrazole-3-carboxamide], the fold induction at 10 µM worked out at 1.24 in assay [1] and 1.37 in assay [2].

On to `O=C(NCCNC(=O)c1cc(-c2ccccc2)[nH]n1)c1ccncc1` [Compound 124, N-(2-(5-phenyl-1H-pyrazole-3-carboxamido)ethyl)isonicotinamide], for which the fold induction at 10 µM in assay [1] came to 1.22; in assay [2], 1.29. For the same compound, the “Pol II association with the E-cadherin proximal promoter” value in assay [3] is recorded as “did not show any effect”.

With `O=C(NCCNC(=O)c1nccs1)c1cc(-c2ccccc2)[nH]n1` [Compound 125, N-(2-(5-phenyl-1H-pyrazole-3-carboxamido)ethyl)thiazole-2-carboxamide], the results for the fold induction at 10 µM in assay [1] and in assay [2] were 1.1 and 1.77, respectively.

Turning to `CC(/C=C/C(=O)NO)=C\[C@@H](C)C(=O)c1ccc(N(C)C)cc1` [TSA, trichostatin A], in assay [4], the “modification of the repressive marker H3K27me3” value is reported as “Less overall modification”. Also, in assay [4] (0.33 μM TSA), the “time of peak of H3K9Ac and H3K4me3 levels” value stood at 6 h. The “time at which increase in H3K9Ac and H3K4me3 levels is first observed” value in assay [4] (10 μM Compound 13, 0.33 μM TSA) worked out at 1 h. The “restoring E-cadherin in HMEC-1 cells” value with HMEC-1 cells is “neither TSA nor 5-Aza, nor the combination of these two agents, was effective”.

For the compound `C[C@@H]1C[C@@H]([C@H](O)CC2CC(=O)NC(=O)C2)C(=O)[C@@H](C)C1` [cycloheximide], in the assay with cyclin D1 protein, the “cyclin D1 levels” value is “markedly reduced” and the β-actin protein levels result is “not significantly altered”.

As a reminder, the fold induction is the ratio of treated to control signal. In general, EC50 refers to the concentration that produces a half-maximal response.
